The source of these data is patent US20190375708A1 (VenatoRx Pharmaceuticals, Inc., priority 2018, published 2019).

Where only a bound is given, the exact number is not on record here.

In data set [1] the test system is HBV replication in HepAD38 cells. The data set can be described thus: Anti-HBV replication assay in HepAD38 cells (QPCR of extracellular HBV DNA). It counts as cell-based, HBV (genotype D, serotype ayw). The conditions noted are these: Hepatitis B virus, 168 h, 7 days incubation, extracellular HBV DNA by QPCR, read-out: Anti-HBV EC50. In outline: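 EC50 values reflect 50% reduction of extracellular HBV DNA, measured by QPCR after 7-day treatment of tetracycline-deprived HepAD38 cells with compound […].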

The nature of data set [2]: In vitro cytotoxicity assay (MTT cell viability) in HepG2 cells. The data set is classed as cell-based, human. The conditions noted are these: human. The procedure, abridged: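 CC50 values reflect loss of HepG2 viability after a 7-day exposure at 37 °C, 5% CO2. After 3-4 h with MTT, solubilized formazan was quantified at 492 nm relative to vehicle wells.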

For `Cc1noc([C@@H](C)NC(=O)C(=O)c2cc(C(=O)Nc3ccc(F)c(C)c3)c3n2CCCC3)n1` [Example 431, (R)-N-(4-fluoro-3-methylphenyl)-3-(2-((1-(3-methyl-1,2,4-oxadiazol-5-yl)ethyl)amino)-2-oxoacetyl)-5,6,7,8-tetrahydroindolizine-1-carboxamide], the EC50 (usually the midpoint of the concentration-response curve) in data set [1] lay in the range of 0.05 to 0.499 µM. Moreover, the CC50 (in general, the concentration giving 50% cytotoxicity) at 7 days in data set [2] was > 30 µM.

On to `Cc1cc(NC(=O)c2cc(C(=O)C(=O)NC3(CO)CC(F)(F)C3)n3c2CCCC3)ccc1F` [Example 432, 3-(2-((3,3-difluoro-1-(hydroxymethyl)cyclobutyl)amino)-2-oxoacetyl)-N-(4-fluoro-3-methylphenyl)-5,6,7,8-tetrahydroindolizine-1-carboxamide], for which, in data set [1], the EC50 lay within 0.05 to 0.499 µM. In addition, the CC50 at 7 days in data set [2] is > 30 µM.

`Cc1cc(NC(=O)c2cc(C(=O)C(=O)N[C@H](CO)[C@@H](C)O)n3c2CCCC3)ccc1F` [Example 433, 3-(2-(((2R,3R)-1,3-dihydroxybutan-2-yl)amino)-2-oxoacetyl)-N-(4-fluoro-3-methylphenyl)-5,6,7,8-tetrahydroindolizine-1-carboxamide]: in data set [1], the half-maximal effective concentration (EC50) was 0.5 to 1 µM. For the same molecule, the cytotoxic concentration (CC50) at 7 days in data set [2] is > 30 µM.

Take `Cc1cc(NC(=O)c2c(C)c(C(=O)C(=O)NC(C)(C)C)n3c2CCCC3)ccc1F` [Example 434, 3-(2-(tert-butylamino)-2-oxoacetyl)-N-(4-fluoro-3-methylphenyl)-2-methyl-5,6,7,8-tetrahydroindolizine-1-carboxamide]: in data set [1], the 50% effective concentration (EC50) was < 0.05 µM. In data set [2], the CC50 at 7 days is > 30 µM.

Consider `Cc1c(C(=O)Nc2ccc(F)c(C#N)c2)c2n(c1C(=O)C(=O)NC(C)(C)C)CCCC2` [Example 435, 3-(2-(tert-butylamino)-2-oxoacetyl)-N-(3-cyano-4-fluorophenyl)-2-methyl-5,6,7,8-tetrahydroindolizine-1-carboxamide], for which the EC50 in data set [1] was > 1 µM. For the same molecule, in data set [2], the CC50 at 7 days was in the range of 5 to 30 µM.

For the molecule `Cc1cc(NC(=O)c2c(C)c(C(=O)C(=O)NC(C)(C)CO)n3c2CCCC3)ccc1F` [Example 436, N-(4-fluoro-3-methylphenyl)-3-(2-((1-hydroxy-2-methylpropan-2-yl)amino)-2-oxoacetyl)-2-methyl-5,6,7,8-tetrahydroindolizine-1-carboxamide], the EC50 in data set [1] lay within 0.05 to 0.499 µM. For the same molecule, the 50% cytotoxic concentration (CC50) at 7 days in data set [2] was > 30 µM.

For the molecule `Cc1cc(NC(=O)c2c(C)c(C(=O)C(=O)NC(C)(C)c3nc(CN(C)C)no3)n3c2CCCC3)ccc1F` [Example 437, 3-(2-((2-(3-((dimethylamino)methyl)-1,2,4-oxadiazol-5-yl)propan-2-yl)amino)-2-oxoacetyl)-N-(4-fluoro-3-methylphenyl)-2-methyl-5,6,7,8-tetrahydroindolizine-1-carboxamide], in data set [1], the EC50 fell in the range of 0.05 to 0.499 µM. The 50% cytotoxic concentration (CC50) at 7 days in data set [2] was > 30 µM.

On to `Cc1cc(NC(=O)c2c(C)c(C(=O)C(=O)N[C@H]3C[C@H](O)C3)n3c2CCCC3)ccc1F` [Example 438, N-(4-fluoro-3-methylphenyl)-3-(2-(((1r,3r)-3-hydroxycyclobutyl)amino)-2-oxoacetyl)-2-methyl-5,6,7,8-tetrahydroindolizine-1-carboxamide], for which, in data set [1], the 50% effective concentration (EC50) fell in the range of 0.05 to 0.499 µM. Also, in data set [2], the CC50 at 7 days was > 30 µM.

For `Cc1cc(NC(=O)c2c(C)c(C(=O)C(=O)N[C@H]3COC[C@@H]3O)n3c2CCCC3)ccc1F` [Example 439, N-(4-fluoro-3-methylphenyl)-3-(2-(((3S,4R)-4-hydroxytetrahydrofuran-3-yl)amino)-2-oxoacetyl)-2-methyl-5,6,7,8-tetrahydroindolizine-1-carboxamide], the EC50 in data set [1] lay in the range of 0.05 to 0.499 µM. Also, in data set [2], the CC50 at 7 days is > 30 µM.

With `Cc1cc(NC(=O)c2c(C)c(C(=O)C(=O)N[C@H]3CCC[C@H]3O)n3c2CCCC3)ccc1F` [Example 440, N-(4-fluoro-3-methylphenyl)-3-(2-(((1S,2R)-2-hydroxycyclopentyl)amino)-2-oxoacetyl)-2-methyl-5,6,7,8-tetrahydroindolizine-1-carboxamide], the EC50 in data set [1] fell in the range of 0.05 to 0.499 µM. This molecule also displayed a CC50 at 7 days in data set [2] of 5 to 30 µM.

For the molecule `Cc1cc(NC(=O)c2c(C)c(C(=O)C(=O)NC3(CO)CC(F)(F)C3)n3c2CCCC3)ccc1F` [Example 441, 3-(2-((3,3-difluoro-1-(hydroxymethyl)cyclobutyl)amino)-2-oxoacetyl)-N-(4-fluoro-3-methylphenyl)-2-methyl-5,6,7,8-tetrahydroindolizine-1-carboxamide], the EC50 in data set [1] was < 0.05 µM. For the same molecule, the CC50 at 7 days in data set [2] lay in the range of 5 to 30 µM.

Consider `Cc1cc(NC(=O)c2c(C)c(C(=O)C(=O)NC3(CO)CCC3)n3c2CCCC3)ccc1F` [Example 442, N-(4-fluoro-3-methylphenyl)-3-(2-((1-(hydroxymethyl)cyclobutyl)amino)-2-oxoacetyl)-2-methyl-5,6,7,8-tetrahydroindolizine-1-carboxamide], for which, in data set [1], the EC50 was < 0.05 µM. Also, the CC50 at 7 days in data set [2] was 5 to 30 µM.

For the molecule `Cc1cc(NC(=O)c2c(C)c(C(=O)C(=O)NCC(C)(C)CO)n3c2CCCC3)ccc1F` [Example 443, N-(4-fluoro-3-methylphenyl)-3-(2-((3-hydroxy-2,2-dimethylpropyl)amino)-2-oxoacetyl)-2-methyl-5,6,7,8-tetreahydroindolizine-1-carboxamide], the concentration giving a half-maximal response (EC50) in data set [1] is < 0.05 µM. This molecule returned a CC50 at 7 days in data set [2] of 5 to 30 µM.

For the molecule `Cc1cc(NC(=O)c2c(C)c(C(=O)C(=O)NCC(C)(C)O)n3c2CCCC3)ccc1F` [Example 444, N-(4-fluoro-3-methylphenyl)-3-(2-((2-hydroxy-2-methylpropyl)amino)-2-oxoacetyl)-2-methyl-5,6,7,8-tetrahydroindolizine-1-carboxamide], the EC50 in data set [1] was < 0.05 µM. Further, the CC50 at 7 days in data set [2] fell in the range of 5 to 30 µM.

Turning to `Cc1cc(NC(=O)c2c(C)c(C(=O)C(=O)NC3(CO)CC3)n3c2CCCC3)ccc1F` [Example 445, N-(4-fluoro-3-methylphenyl)-3-(2-((1-(hydroxymethyl)cyclopropyl)amino)-2-oxoacetyl)-2-methyl-5,6,7,8-tetrahydroindolizine-1-carboxamide], the EC50 in data set [1] is < 0.05 µM. This molecule gave a CC50 at 7 days in data set [2] of 5 to 30 µM.

With `Cc1noc([C@H](C)NC(=O)C(=O)c2c(C)c(C(=O)Nc3ccc(F)c(Cl)c3)c3n2CCCC3)n1` [Example 446, (S)-N-(3-chloro-4-fluorophenyl)-2-methyl-3-(2-((1-(3-methyl-1,2,4-oxadiazol-5-yl)ethyl)amino)-2-oxoacetyl)-5,6,7,8-tetrahydroindolizine-1-carboxamide], the EC50 in data set [1] was 0.05 to 0.499 µM. Further, the CC50 at 7 days in data set [2] lay in the range of 5 to 30 µM.

`Cc1noc([C@@H](C)NC(=O)C(=O)c2c(C)c(C(=O)Nc3ccc(F)c(Cl)c3)c3n2CCCC3)n1` [Example 447, (R)-N-(3-chloro-4-fluorophenyl)-2-methyl-3-(2-((1-(3-methyl-1,2,4-oxadiazol-5-yl)ethyl)amino)-2-oxoacetyl)-5,6,7,8-tetrahydroindolizine-1-carboxamide]: the EC50 in data set [1] was < 0.05 µM. This molecule registered a CC50 at 7 days in data set [2] of 5 to 30 µM.

On to `Cc1c(C(=O)Nc2ccc(F)c(Cl)c2)c2n(c1C(=O)C(=O)NCc1cnc(N)s1)CCCC2` [Example 448, 3-(2-(((2-aminothiazol-5-yl)methyl)amino)-2-oxoacetyl)-N-(3-chloro-4-fluorophenyl)-2-methyl-5,6,7,8-tetrahydroindolizine-1-carboxamide], for which the EC50 in data set [1] was < 0.05 µM. In data set [2], this molecule came in with a cytotoxic concentration (CC50) at 7 days of 5 to 30 µM.

In the case of `Cc1c(C(=O)Nc2ccc(F)c(Cl)c2)c2n(c1C(=O)C(=O)N[C@H]1C[C@H](O)C1)CCCC2` [Example 449, N-(3-chloro-4-fluorophenyl)-3-(2-(((1r,3r)-3-hydroxycyclobutyl)amino)-2-oxoacetyl)-2-methyl-5,6,7,8-tetrahydroindoliziine-1-carboxamide], the EC50 in data set [1] fell in the range of 0.05 to 0.499 µM. In addition, the CC50 at 7 days in data set [2] is > 30 µM.

As to `Cc1c(C(=O)Nc2ccc(F)c(Cl)c2)c2n(c1C(=O)C(=O)N[C@H]1COC[C@@H]1O)CCCC2` [Example 450, N-(3-chloro-4-fluorophenyl)-3-(2-(((3S,4R)-4-hydroxytetrahydrofuran-3-yl)amino)-2-oxoacetyl)-2-methyl-5,6,7,8-tetrahydroindolizine-1-carboxamide], the EC50 in data set [1] was in the range of 0.05 to 0.499 µM. The CC50 at 7 days in data set [2] was > 30 µM.

For the molecule `Cc1c(C(=O)Nc2ccc(F)c(Cl)c2)c2n(c1C(=O)C(=O)N[C@H]1CCC[C@H]1O)CCCC2` [Example 451, N-(3-chloro-4-fluorophenyl)-3-(2-(((1S,2R)-2-hydroxycyclopentyl)amino)-2-oxoacetyl)-2-methyl-5,6,7,8-tetrahydroindolizine-1-carboxamide], the concentration for a half-maximal effect (EC50) in data set [1] is 0.05 to 0.499 µM. Besides, in data set [2], the CC50 at 7 days fell in the range of 5 to 30 µM.

In the case of `Cc1c(C(=O)Nc2ccc(F)c(Cl)c2)c2n(c1C(=O)C(=O)NC1(CO)CCC1)CCCC2` [Example 452, N-(3-chloro-4-fluorophenyl)-3-(2-((1-(hydroxymethyl)cyclobutyl)amino)-2-oxoacetyl)-2-methyl-5,6,7,8-tetrahydroindolizine-1-carboxamide], the EC50 in data set [1] was < 0.05 µM. The CC50 at 7 days in data set [2] lay in the range of 5 to 30 µM.

Take `Cc1c(C(=O)Nc2ccc(F)c(Cl)c2)c2n(c1C(=O)C(=O)NC1(CO)CC1)CCCC2` [Example 453, N-(3-chloro-4-fluorophenyl)-3-(2-((1-(hydroxymethyl)cyclopropyl)amino)-2-oxoacetyl)-2-methyl-5,6,7,8-tetrahydroindolizine-1-carboxamide]: the EC50 in data set [1] is 0.05 to 0.499 µM. Moreover, the CC50 at 7 days in data set [2] was > 30 µM.

For the molecule `Cc1noc([C@@H](C)NC(=O)C(=O)c2c(C)c(C(=O)Nc3ccc(F)c(F)c3)c3n2CCCC3)n1` [Example 454, (R)-N-(3,4-difluorophenyl)-2-methyl-3-(2-((1-(3-methyl-1,2,4-oxadiazol-5-yl)ethyl)amino)-2-oxoacetyl) 5,6,7,8-tetrahydroindolizine-1-carboxamide], the concentration giving a half-maximal response (EC50) in data set [1] is 0.05 to 0.499 µM. For the same molecule, the CC50 at 7 days in data set [2] is > 30 µM.
